Assay results from PubChem BioAssay AID1259338 (Broad Institute, 2017).
The source made the active and inactive calls.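 The calls were made as follows: active = compounds lowering the signal with a fitted AC50 at or below a set concentration limit; inconclusive = flat curve with 30 to 70% inhibition, or a poor fit; inactive = the rest.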

Target: Caspase recruitment domain-containing protein 9 (Homo sapiens) + E3 ubiquitin-protein ligase TRIM62 (Homo sapiens) (UniProt Q9H257+Q9BVG3)
Test: disruptors of CARD9-TRIM62 binding, dose response, cell lysate, HEK293FT lysates, Luminex bead readout (AID 1259338); also: reference of the scale not given here
Conditions: Luminex bead PPI, MFI, at 80 µM (top of the series)

Sequence of Caspase recruitment domain-containing protein 9 (Homo sapiens) + E3 ubiquitin-protein ligase TRIM62 (Homo sapiens) (Q9BVG3 whole entry, looked up, the tested form may be a part): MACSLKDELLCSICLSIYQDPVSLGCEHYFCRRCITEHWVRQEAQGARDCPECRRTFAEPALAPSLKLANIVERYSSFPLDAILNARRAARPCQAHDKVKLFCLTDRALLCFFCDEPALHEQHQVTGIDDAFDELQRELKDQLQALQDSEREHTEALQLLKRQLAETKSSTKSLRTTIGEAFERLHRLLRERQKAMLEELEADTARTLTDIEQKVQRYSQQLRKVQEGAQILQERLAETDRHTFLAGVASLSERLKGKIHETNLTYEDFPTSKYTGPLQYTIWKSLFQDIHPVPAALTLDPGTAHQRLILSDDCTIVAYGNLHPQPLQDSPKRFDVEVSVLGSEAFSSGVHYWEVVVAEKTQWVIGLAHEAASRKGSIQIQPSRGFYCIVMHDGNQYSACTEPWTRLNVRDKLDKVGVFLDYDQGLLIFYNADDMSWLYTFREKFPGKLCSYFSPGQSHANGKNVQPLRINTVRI
Sequence of Caspase recruitment domain-containing protein 9 (Homo sapiens) + E3 ubiquitin-protein ligase TRIM62 (Homo sapiens) (Q9H257 whole entry, looked up, the tested form may be a part): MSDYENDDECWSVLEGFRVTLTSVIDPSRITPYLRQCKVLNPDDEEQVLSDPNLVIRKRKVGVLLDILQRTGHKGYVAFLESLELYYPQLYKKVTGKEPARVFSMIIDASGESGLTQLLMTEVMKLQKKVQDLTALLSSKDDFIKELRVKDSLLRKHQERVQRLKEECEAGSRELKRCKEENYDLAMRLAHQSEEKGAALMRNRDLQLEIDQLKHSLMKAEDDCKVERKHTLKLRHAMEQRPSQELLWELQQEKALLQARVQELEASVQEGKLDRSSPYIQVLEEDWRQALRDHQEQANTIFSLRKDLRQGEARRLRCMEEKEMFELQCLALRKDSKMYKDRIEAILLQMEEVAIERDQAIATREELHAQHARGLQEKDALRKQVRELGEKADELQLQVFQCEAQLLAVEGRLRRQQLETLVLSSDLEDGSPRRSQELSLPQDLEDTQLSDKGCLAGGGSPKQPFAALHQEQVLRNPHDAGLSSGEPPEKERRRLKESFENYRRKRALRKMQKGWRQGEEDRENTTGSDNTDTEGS

Row | Compound | activity change, negative = inhibition
1 | CCSCCNC(=O)c1cncc(Br)c1 | inactive
2 | O=C(N/N=C/C=C/c1ccco1)c1cncc(Br)c1 | inactive
3 | O=C(Nc1cccc2ccccc12)NC1CC1 | inactive
4 | CCCCCn1c(NC(=O)c2ccco2)c(C(=O)OCC)c2nc3ccccc3nc21 | inactive
5 | COc1ccc(-c2ccc(CCC(=O)O)o2)cc1 | inactive
6 | O=c1oc(/C=C/c2ccc([N+](=O)[O-])s2)nc2ccccc12 | inactive
7 | O=C(O)COc1ccc(-n2cccc2)cc1 | inactive
